Laboratory results from paper PMC11056381, “Characterization and evaluation of cytotoxic and antimicrobial activities of cyclotides from Viola japonica” (Scientific Reports, 2024).
In brackets after ≈: the same amount, converted by molar mass. Structures can show the parent of a compound that is named as a salt. Where two headings read alike, the source gives them in different places. Residues, ends and D or L forms follow the SMILES beside them.

Legend:
[1] = system: Bacillus subtilis (CMCC(B)63501); experiment: microbe, parasite or virus in culture
Source text: (§1) Viba 11, originally discovered in Viola baoshanensis[39] and found in other plants such as Viola tricolor[40], Viola betonicifolia, and Viola philippica, lacks biological activity studies. […] All purified cyclotides underwent antibacterial testing against Gram-positive bacterium Staphylococcus aureus (CMCC(B)26003-2-10) and Bacillus subtilis (CMCC(B)63501), Gram-negative bacteria, including Acinetobacter baumannii (ATCC19606), Escherichia coli (CMCC(B)44102-2-6), and Salmonella paratyphi (CMCC(B)50094-2-9).
(§2) Bacterial fluids are cultured overnight at 37 °C. The next day, the bacterial liquids are diluted to a concentration of 10^6 CFU/ml. Prepare different concentrations of cyclotide drugs and kanamycin sulfate in advance, and sequentially add the drugs and bacterial liquid to the 96-well plate. Negative controls consisted of sterile water and bacterial liquid. The plate is cultured overnight at 37 °C and observe whether the solution remains clear to see the growth of the bacterial suspension. Each test was performed three times at least.

[2] = system: Escherichia coli (CMCC(B)44102-2-6); experiment: microbe, parasite or virus in culture
Source text: as §1, §2

[3] = system: Acinetobacter baumannii (ATCC19606); experiment: microbe, parasite or virus in culture
Source text: as §1, §2

[4] = system: THLE-3 (human hepatocytes cells); experiment: MTT cytotoxicity assay; assay type: cell-based; conditions: THLE-3 cells, 48 h incubation, mean ± SD of at least three repeats
Description: (§3) Five types of cells, namely A549 (human non-small cell lung cancer cells), T24 (human bladder cancer cells), 4T1 (mouse breast cancer cells), 7402 (human hepatocellular carcinoma cells), and THLE-3 (human hepatocytes cells), are selected for evaluating the cytotoxicity of viba 11, cycloviolacin O2, and vija 10 using the MTT (3-(4,5-dimethylthiazol-2-yl)-2,5-diphenyltetrazolium bromide) reagent.
(§4) To determine cell toxicity using MTT assay, cells are seeded in a 96-well plate and cultured for 24 h. After that, different concentrations of cyclotides are added to the cells and incubated for 48 h. MTT is then added to react with the cells, and after 4 h, the reaction is terminated by discarding the supernatant and adding dimethyl sulfoxide for resuspension. The absorbance at 570 nm is measured after 10 min of shaking at room temperature. Each test was performed three times at least. The data were analyzed using GraphPad Prism 8. During this process, the drug concentrations were transformed into logarithmic form with a base of 10 and plotted on the x-axis. Cell viability (%) = [A (cyclotides) − A (blank)]/[A (control) − A (blank)] × 100, which was represented on the y-axis. Using this method, we determined the IC50 value for each experiment, with each experiment repeated at least three times and the mean value calculated. The error was represented by the standard deviation of the IC50 obtained from three repetitions.

[5] = system: 7402 (human hepatocellular carcinoma cells); experiment: MTT cytotoxicity assay; assay type: cell-based; conditions: 7402 cells, 48 h incubation, mean ± SD of at least three repeats
Description: as §3, §4

[6] = system: A549 (human non-small cell lung cancer cells); experiment: MTT cytotoxicity assay; assay type: cell-based; conditions: 48 h incubation, mean ± SD of at least three repeats
Description: as §3, §4

[7] = system: T24 (human bladder cancer cells); experiment: MTT cytotoxicity assay; assay type: cell-based; conditions: 48 h incubation, mean ± SD of at least three repeats
Description: as §3, §4

[8] = system: 4T1 (mouse breast cancer cells); experiment: MTT cytotoxicity assay; assay type: cell-based; conditions: 4T1 cells, 48 h incubation, mean ± SD of at least three repeats
Description: as §3, §4

Acinetobacter baumannii = experiment: Time killing kinetics; assay type: cell-based; conditions: about 10^6 CFU/mL, LB, 37 °C, colony count
Description: In this study, we investigated the time-kill kinetics characteristics of plant cyclotides against bacteria. […] It is worth noting that due to experimental constraints, there was a slight discrepancy of a few minutes between theoretical 0 h and actual 0 h. […] Furthermore, we also conducted time-kill kinetics studies using vija 10 against B. subtilis.
Figure 4 (A) The Acinetobacter baumannii time killing kinetics of cycloviolacin O2 at concentration of 1 MIC, 2 MIC, 4 MIC and 8 MIC at 37 °C. (B) The Bacillus subtilis time killing kinetics of vija 10 at concentration of 1 MIC, 2 MIC, 4 MIC at 37 °C. Each test was performed three times at least.
Incubate A. baumannii and B. subtilis in fresh nutrient LB broth at 37 °C until logarithmic growth stage, then dilute to approximately 10^6 CFU/mL, and incubate with cycloviolacin O2 at concentrations of 1 MIC, 2 MIC, 4 MIC, 8 MIC with A. baumannii and vija 10 at concentrations of 1 MIC, 2 MIC, 4 MIC with B. subtilis respectively. Taking the mixture at time points of 0 h, 0.5 h, 1 h, 1.5 h and 2 h, dilute and coat it to solid medium for 24 h. Count the number of colonies on solid culture medium. Each test was performed three times at least. Plotting a line graph with time on the x-axis and bacterial survival on the y-axis using GraphPad Prism 8. Statistical analysis of bacterial viability at different time points to determine the bactericidal and bacteriostatic effects of cyclotides.

[9] = system: Salmonella paratyphi (CMCC(B)50094-2-9); experiment: MIC, broth dilution in 96-well plate; assay type: cell-based; conditions: 10^6 CFU/ml, overnight 37 °C, visual clarity, performed at least three times
Source text: (§5) Cycloviolacin O2, known for its antimicrobial, hemolytic, and insecticidal activities, has been more extensively investigated[4],[20],[36]–[38]. Viba 11, originally discovered in Viola baoshanensis[39] and found in other plants such as Viola tricolor[40], Viola betonicifolia, and Viola philippica, lacks biological activity studies. These two cyclotides and vija 10 are high in content and easy to purify, and cycloviolacin O2 can also be used as a positive control to conduct activity study. In addition, few vija12 and 31 were extracted for antibacterial experiments. All purified cyclotides underwent antibacterial testing against Gram-positive bacterium Staphylococcus aureus (CMCC(B)26003-2-10) and Bacillus subtilis (CMCC(B)63501), Gram-negative bacteria, including Acinetobacter baumannii (ATCC19606), Escherichia coli (CMCC(B)44102-2-6), and Salmonella paratyphi (CMCC(B)50094-2-9). […] In addition, the MICs of viba 11, cycloviolacin O2 and vija 10 against B. subtilis were respectively 5.4 μM, 2.1 μM and 14.3 μM (Table 1). […] Therefore, it is hypothesized that the lower antimicrobial activity of vija 10 may be attributed to the presence of only one Lys residue in loop 5.
as §2

[10] = system: Staphylococcus aureus (CMCC(B)26003-2-10); experiment: MIC, broth dilution in 96-well plate; assay type: cell-based; conditions: 10^6 CFU/ml, overnight 37 °C, visual clarity, performed at least three times
Source text: as §5, §2

[11] = 10^6 CFU/ml, 96-well plate, overnight 37 °C, visual clarity, performed at least three times
[12] = Acinetobacter baumannii ATCC19606, 10^6 CFU/ml, 96-well plate, overnight 37 °C, visual clarity, performed at least three times

## NC[C@H]1O[C@H](O[C@H]2[C@H](O)[C@@H](O[C@H]3O[C@H](CO)[C@@H](O)[C@H](N)[C@H]3O)[C@H](N)C[C@@H]2N)[C@H](O)[C@@H](O)[C@@H]1O [Kanamycin sulfate, reference compound]
[1]
  MIC: 4 µM
[2]
  MIC: 8 µM
[3]; Acinetobacter baumannii, ATCC19606
  MIC: 8 µM

## CC[C@H](C)[C@@H]1NC(=O)[C@H](C)NC(=O)[C@H](CO)NC(=O)[C@H](CO)NC(=O)[C@H]([C@@H](C)CC)NC(=O)[C@@H]2CSSC[C@@H]3NC(=O)[C@H](C(C)C)NC(=O)[C@H](CCCCN)NC(=O)[C@H](CO)NC(=O)[C@H](CCCCN)NC(=O)[C@@H]4CSSC[C@H](NC(=O)[C@H](CO)NC(=O)[C@H](CCC(=O)O)NC(=O)CNC(=O)[C@H](CSSC[C@H](NC(=O)CNC1=O)C(=O)N[C@@H](CO)C(=O)N4)NC(=O)[C@@H]1CCCN1C(=O)[C@H]([C@@H](C)CC)NC(=O)CNC(=O)[C@H](CC(N)=O)NC(=O)[C@H](CCCNC(=N)N)NC(=O)[C@H](Cc1ccc(O)cc1)NC3=O)C(=O)N[C@@H](C(C)C)C(=O)N[C@@H](Cc1c[nH]c3ccccc13)C(=O)N[C@@H]([C@@H](C)CC)C(=O)N1CCC[C@H]1C(=O)N2 [cycloviolacin O2, reference compound] (HELM PEPTIDE1{A.I.G.C.S.C.K.S.K.V.C.Y.R.N.G.I.P.C.G.E.S.C.V.W.I.P.C.I.S.S}$PEPTIDE1,PEPTIDE1,4:R3-18:R3|PEPTIDE1,PEPTIDE1,6:R3-22:R3|PEPTIDE1,PEPTIDE1,11:R3-27:R3|PEPTIDE1,PEPTIDE1,1:R1-30:R2$$$V2.0)
[4]
  IC50: 1210 ± 50 nM
[5]
  IC50: 1332 ± 10 nM
[6]
  IC50: 149 ± 30 nM
[7]
  IC50: 1690 ± 160 nM
[8]
  IC50: 162 ± 10 nM
Acinetobacter baumannii; 4 MIC
  time of treatment to complete eradication of A. baumannii: 2 h
Acinetobacter baumannii; 8 MIC
  time of treatment to complete eradication of A. baumannii: 1.5 h
[9]
  MIC: > 16.8 µM
[10]
  MIC: > 16.8 µM
[1]; [11]
  MIC: 2.1 µM (≈ 6.6 µg/mL)
[2]; [11]
  MIC: > 16.8 µM
[3]; [12]
  MIC: 4.2 µM (≈ 13.2 µg/mL)

## CC[C@H](C)[C@@H]1NC(=O)[C@H](Cc2ccc(O)cc2)NC(=O)[C@H](CO)NC(=O)CNC(=O)[C@H](CC(N)=O)NC(=O)[C@H](CCCCN)NC(=O)[C@H](CCCCN)NC(=O)[C@@H]2CSSC[C@@H]3NC(=O)[C@H](CCCCN)NC(=O)[C@H](CC(C)C)NC(=O)[C@H](CCCCN)NC(=O)[C@H](C(C)C)NC(=O)[C@@H]4CSSC[C@H](NC(=O)[C@H]([C@@H](C)O)NC(=O)[C@H](CSSC[C@H](NC(=O)[C@H](CO)NC1=O)C(=O)NCC(=O)N[C@@H](CCC(=O)O)C(=O)N[C@@H]([C@@H](C)O)C(=O)N4)NC(=O)CNC(=O)[C@@H]1CCCN1C(=O)[C@H]([C@@H](C)O)NC(=O)[C@H](Cc1ccc(O)cc1)NC3=O)C(=O)N[C@@H]([C@@H](C)O)C(=O)N[C@@H](Cc1c[nH]c3ccccc13)C(=O)N1CCC[C@H]1C(=O)N[C@@H](C)C(=O)N2 [vija 12] (HELM PEPTIDE1{A.C.K.K.N.G.S.Y.I.S.C.G.E.T.C.V.K.L.K.C.Y.T.P.G.C.T.C.T.W.P}$PEPTIDE1,PEPTIDE1,2:R3-20:R3|PEPTIDE1,PEPTIDE1,11:R3-25:R3|PEPTIDE1,PEPTIDE1,15:R3-27:R3|PEPTIDE1,PEPTIDE1,1:R1-30:R2$$$V2.0)
[3]; [12]
  MIC: 14.9 µM (≈ 48 µg/mL)

## CC(C)C[C@@H]1NC(=O)[C@@H]2CCCN2C(=O)[C@H](Cc2ccc(O)cc2)NC(=O)[C@H](CCCCN)NC(=O)[C@H](C)NC(=O)[C@@H]2CSSC[C@@H]3NC(=O)[C@H]([C@@H](C)O)NC(=O)[C@H](CCC(=O)O)NC(=O)CNC(=O)[C@@H]4CSSC[C@H](NC(=O)CNC(=O)[C@@H]5CCCN5C(=O)[C@H]([C@@H](C)O)NC(=O)[C@H](Cc5ccccc5)NC(=O)[C@H](CSSC[C@H](NC1=O)C(=O)N[C@@H](CO)C(=O)N[C@@H](CCCCN)C(=O)N[C@@H](CC(N)=O)C(=O)NCC(=O)N[C@@H](CO)C(=O)N[C@@H](C(C)C)C(=O)N[C@@H]([C@@H](C)O)C(=O)NCC(=O)N4)NC(=O)[C@H](CCCCN)NC(=O)[C@H](Cc1ccccc1)NC(=O)[C@H](CCCCN)NC(=O)[C@H](Cc1ccccc1)NC3=O)C(=O)N[C@@H](CCCCN)C(=O)N2 [vija 31] (HELM PEPTIDE1{A.K.Y.P.L.C.S.K.N.G.S.V.T.G.C.G.E.T.C.F.K.F.K.C.F.T.P.G.C.K.C}$PEPTIDE1,PEPTIDE1,6:R3-24:R3|PEPTIDE1,PEPTIDE1,15:R3-29:R3|PEPTIDE1,PEPTIDE1,19:R3-31:R3|PEPTIDE1,PEPTIDE1,1:R1-31:R2$$$V2.0)
[3]; [12]
  MIC: 14.9 µM (≈ 48.9 µg/mL)
